Measured values from patent publication US20250215029A1 (Recludix Pharma, Inc., priority 2022, published 2025).
Read-outs that look alike come from different tables or passages of the source.

What was measured:
[1] = molecular target: T1, Recombinant STAT6 protein (STAT6 (W123-T658)) (Homo sapiens, UniProt P42226); experiment: STAT6 Fluorescence Polarization (FP) Assay; assay type: binding; conditions: probe 5-FAM-Ap[…]-NH2 2 nM, 45-minute incubation
T1 construct: Recombinant STAT6 protein (STAT6 (W123-T658))
T1 sequence (P42226 123-658): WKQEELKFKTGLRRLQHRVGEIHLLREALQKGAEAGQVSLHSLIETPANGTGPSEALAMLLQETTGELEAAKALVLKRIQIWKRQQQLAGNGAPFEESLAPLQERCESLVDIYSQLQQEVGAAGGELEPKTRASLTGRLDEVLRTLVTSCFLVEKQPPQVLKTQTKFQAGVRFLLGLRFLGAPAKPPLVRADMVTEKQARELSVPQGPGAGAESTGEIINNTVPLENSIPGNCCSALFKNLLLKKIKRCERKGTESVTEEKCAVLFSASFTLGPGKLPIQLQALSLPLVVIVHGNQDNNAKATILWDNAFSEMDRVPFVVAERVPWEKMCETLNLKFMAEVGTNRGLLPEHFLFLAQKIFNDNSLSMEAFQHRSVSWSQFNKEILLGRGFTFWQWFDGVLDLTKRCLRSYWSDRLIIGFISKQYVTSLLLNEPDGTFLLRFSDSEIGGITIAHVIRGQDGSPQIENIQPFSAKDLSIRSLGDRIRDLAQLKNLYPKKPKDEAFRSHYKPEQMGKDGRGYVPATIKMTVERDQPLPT
Experimental: STAT6 Fluorescence Polarization (FP) Assay
An FP assay was developed to determine IC50 values for test substances. Recombinant STAT6 protein (STAT6 (W123-T658)) at 250 nM was combined with a fluorescently labeled, phosphotyrosine peptide probe (5-FAM-Ap[…]-NH2) at 2 nM in FP buffer (10 mM HEPES pH 7.4, 50 mM NaCl, 1 mM EDTA, 0.05% Tween 20, 2 mM DTT). 50 μL of STAT6-probe mixture was added to serial diluted compounds in black, 96-well plates (Greiner BioOne 655076) to a final concentration of 1% DMSO. Reaction components were mixed, and FP was measured after 45-minute incubation at room temperature using a Tecan Spark multimode plate reader. FP signal (mP) was plotted against the log concentration of the test substances and IC50 values were calculated by nonlinear regression analysis using GraphPad Prism software. For STAT6 FP assay, A=≤300 nM; B=>300-3000 nM; C=>3-30 μM; and D=>30 μM.

[2] = molecular target: T2, Recombinant STAT3 protein (STAT3 (G127-I722)) (Homo sapiens, UniProt P40763); experiment: STAT3 Fluorescence Polarization (FP) Assay; assay type: binding; conditions: probe 5-FAM-GpYLPQTV-NH2 2 nM, 45-minute incubation
T2 construct: Recombinant STAT3 protein (STAT3 (G127-I722))
Experimental: STAT3 Fluorescence Polarization (FP) Assay
An FP assay was developed to determine IC50 values for test substances. Recombinant STAT3 protein (STAT3 (G127-I722)) at 25 nM was combined with a fluorescently labeled, phosphotyrosine peptide probe (5-FAM-GpYLPQTV-NH2) at 2 nM in FP buffer (10 mM HEPES pH 7.4, 50 mM NaCl, 1 mM EDTA, 0.05% Tween 20.2 mM DTT). 50 μL of STAT3-probe mixture was added to serial diluted compounds in black, 96-well plates (Greiner BioOne 655076) to a final concentration of 1% DMSO. Reaction components were mixed, and FP was measured after 45-minute incubation at room temperature using a Tecan Spark multimode plate reader. FP signal (mP) was plotted against the log concentration of the test substances and IC50 values were calculated by nonlinear regression analysis using GraphPad Prism software. For STAT3 FP assay, A=≤100 nM; B=>100-1000 nM; C=>1-10 μM; and D=>10 μM.

[3] = STAT6 250 nM, read-out: STAT6 (FP assay IC50)
[4] = STAT3 25 nM, read-out: STAT3 (FP assay IC50)
[5] = STAT6 (W123-T658) 250 nM, read-out: STAT6 (FP assay IC50 class)
[6] = STAT3 (G127-I722) 25 nM, read-out: STAT3 (FP assay IC50 class)

T2 sequence (P40763 127-722): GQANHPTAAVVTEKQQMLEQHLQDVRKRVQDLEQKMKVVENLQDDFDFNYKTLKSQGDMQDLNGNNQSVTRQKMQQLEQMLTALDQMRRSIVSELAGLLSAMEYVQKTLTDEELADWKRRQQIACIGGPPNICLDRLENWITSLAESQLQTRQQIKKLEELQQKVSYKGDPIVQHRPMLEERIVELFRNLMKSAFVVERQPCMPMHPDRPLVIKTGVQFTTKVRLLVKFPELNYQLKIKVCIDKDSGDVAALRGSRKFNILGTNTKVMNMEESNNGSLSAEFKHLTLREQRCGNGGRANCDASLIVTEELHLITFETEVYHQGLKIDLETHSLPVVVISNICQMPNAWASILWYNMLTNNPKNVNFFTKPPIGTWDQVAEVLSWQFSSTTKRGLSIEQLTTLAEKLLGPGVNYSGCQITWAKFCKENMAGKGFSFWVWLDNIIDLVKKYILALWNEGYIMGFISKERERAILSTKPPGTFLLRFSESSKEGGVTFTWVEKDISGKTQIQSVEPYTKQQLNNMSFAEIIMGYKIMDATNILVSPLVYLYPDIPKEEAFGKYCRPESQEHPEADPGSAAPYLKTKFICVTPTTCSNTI

For N#C[C@H]1CN(C(=O)[C@@H]2CC[C@@H]3/C=C\CC[C@H](NC(=O)c4cc5cc(C(F)(F)P(=O)(O)O)ccc5s4)C(=O)N32)C[C@@H]1c1ccccc1 (relative stereo) [Compound 27, ((2-(((3S,6S,10aR,Z)-3-(rel-trans)3-cyano-4-phenylpyrrolidine-1-carbonyl)-5-oxo-1,2,3,5,6,7,8,10a-octahydropyrrolo[1,2-a]azocin-6-yl)carbamoyl)benzo[b]thiophen-5-yl) difluoromethyl) phosphonic acid], the IC50 [1, 3] was at most 0.3 µM and the IC50 [2, 4] was 1 to 10 µM.

N#C[C@@H]1CN(C(=O)[C@@H]2C[C@@H](O)[C@@H]3CCCCC[C@H](NC(=O)c4cc5cc(C(F)(F)P(=O)(O)O)ccc5s4)C(=O)N23)C[C@H]1c1ccccc1 (relative stereo) [Compound 76, ((2-(((1R,3S,6S, 11aS)-3-(rel-(trans)-3-cyano-4-phenylpyrrolidine-1-carbonyl)-1-hydroxy-5-oxodecahydro-1H-pyrrolo[1,2-a]azonin-6-yl)carbamoyl)benzo[b]thiophen-5-yl)difluoromethyl) phosphonic acid] showed an IC50 [1, 3] of at most 0.3 µM and an IC50 [2, 4] of 1 to 10 µM.

Work on N#C[C@@H]1CN(C(=O)[C@@H]2CC[C@@H]3CCCC[C@H](NC(=O)c4ccc5ccc(C(F)(F)P(=O)(O)O)cc5c4)C(=O)N32)C[C@H]1c1cc[nH]c(=O)c1 (relative stereo) [Compound 83, ((7-(((3S,6S,10aS)-3-(rel-(trans)-3-cyano-4-(2-oxo-1,2-dihydropyridin-4-yl)pyrrolidine-1-carbonyl)-5-oxodecahydropyrrolo [1,2-a]azocin-6-yl)carbamoyl)naphthalen-2-yl)difluoromethyl) phosphonic acid] yielded an IC50 [1, 3] of at most 0.3 µM and an IC50 [2, 4] of 0.1 to 1 µM.

C[C@]1(NC(=O)c2cc3cc(C(F)(F)P(=O)(O)O)ccc3s2)CCCC[C@H]2CC[C@@H](C(=O)N3C[C@H](c4ccccc4)[C@@H](C#N)C3)N2C1=O (relative stereo) [Compound 84, ((2-(((3S,6S,10aS)-3-(rel-(trans)-3-cyano-4-phenylpyrrolidine-1-carbonyl)-6-methyl-5-oxodecahydropyrrolo [1,2-a]azocin-6-yl)carbamoyl)benzo[b]thiophen-5-yl)difluoromethyl) phosphonic acid] showed an IC50 [1, 3] of 0.3 to 3 µM and an IC50 [2, 4] of 0.1 to 1 µM.

Work on N#C[C@@H]1CN(C(=O)[C@@H]2CC[C@@H]3CCCC[C@H](NC(=O)c4cc5cc(C(F)(F)P(=O)(O)O)ccc5s4)C(=O)N32)C[C@H]1c1cc[nH]c(=O)c1 (relative stereo) [Compound 86, ((2-(((3S,6S,10aS)-3-(rel-(trans)-3-cyano-4-(2-oxo-1,2-dihydropyridin-4-yl)pyrrolidine-1-carbonyl)-5-oxodecahydropyrrolo [1,2-a]azocin-6-yl)carbamoyl)benzo[b]thiophen-5-yl)difluoromethyl) phosphonic acid] yielded an IC50 [1, 3] of at most 0.3 µM and an IC50 [2, 4] of 0.1 to 1 µM.

N#C[C@H]1CN(C(=O)[C@@H]2CC[C@@H]3CCCC[C@H](NC(=O)c4cc5cc(C(F)(F)P(=O)(O)O)ccc5s4)C(=O)N32)C[C@H]1c1ccccc1 (relative stereo) [Compound 92, ((2-(((3S,6S,10aS)-3-(rel-(trans)-3-cyano-4-phenylpyrrolidine-1-carbonyl)-5-oxodecahydropyrrolo [1,2-a]azocin-6-yl)carbamoyl)benzo[b]thiophen-5-yl)difluoromethyl) phosphonic acid] gave an IC50 [1, 3] of 0.3 to 3 µM and an IC50 [2, 4] of 0.1 to 1 µM.

With N#C[C@@H]1CN(C(=O)[C@@H]2CC[C@@H]3CCCC[C@H](NC(=O)c4cc5cc(C(F)(F)P(=O)(O)O)ccc5s4)C(=O)N32)C[C@H]1c1ccccc1 (relative stereo) [Compound 95, ((2-(((3S,6S,10aS)-3-(rel-(trans)-3-cyano-4-phenylpyrrolidine-1-carbonyl)-5-oxodecahydropyrrolo [1,2-a]azocin-6-yl)carbamoyl)benzo[b]thiophen-5-yl)difluoromethyl) phosphonic acid] the IC50 [1, 3] was at most 0.3 µM and the IC50 [2, 4] was 0.1 to 1 µM.

For N#C[C@@H]1CN(C(=O)[C@@H]2CC[C@@H]3CCC[C@H](NC(=O)c4cc5cc(C(F)(F)P(=O)(O)O)ccc5s4)C(=O)N32)C[C@H]1c1ccccc1 (relative stereo) [Compound 96, ((2-(((3S,6S,9aS)-3-(rel-(trans)-3-cyano-4-phenylpyrrolidine-1-carbonyl)-5-oxooctahydro-1H-pyrrolo [1,2-a]azepin-6-yl)carbamoyl)benzo[b]thiophen-5-yl)difluoromethyl) phosphonic acid], the IC50 [1, 3] was at most 0.3 µM and the IC50 [2, 4] was 0.1 to 1 µM.

N#C[C@@H]1CN(C(=O)[C@@H]2CC[C@@H]3CCCC[C@H](NC(=O)c4cc5cc(C(F)(F)P(=O)(O)O)ccc5s4)C(=O)N32)C[C@H]1C1CC1 (relative stereo) [Compound 102, ((2-(((3S,6S,10aS)-3-(rel-(trans)-3-cyano-4-cyclopropyl-pyrrolidine-1-carbonyl)-5-oxodecahydropyrrolo [1,2-a]azocin-6-yl)carbamoyl)benzo[b]thiophen-5-yl)difluoromethyl) phosphonic acid] showed an IC50 [1, 3] of 0.3 to 3 µM and an IC50 [2, 4] of 0.1 to 1 µM.

N#C[C@H]1[C@H](c2ccccc2)CN(C(=O)[C@@H]2CC[C@@H]3CCCC[C@H](NC(=O)c4cc5cc(C(F)P(=O)(O)O)ccc5s4)C(=O)N32)C12CC2 (relative stereo) [Compound 229, ((2-(((3S,6S,10aS)-3-((rel-trans)-7-cyano-6-phenyl-4-azaspiro[2.4]heptane-4-carbonyl)-5-oxodecahydropyrrolo[1,2-a]azocin-6-yl)carbamoyl)benzo[b]thiophen-5-yl)fluoromethyl)phosphonic acid] was tested, and the IC50 [1, 5] was at most 0.3 µM and the IC50 [2, 6] was 1 to 10 µM.

With COc1ncccc1[C@@H]1CN(C(=O)[C@@H]2CC[C@@H]3CCCC[C@H](NC(=O)c4cc5cc(C(F)P(=O)(O)O)ccc5s4)C(=O)N32)C[C@H]1C#N (relative stereo) [Compound 230, ((2-(((3S,6S,10aS)-3-((rel-trans)-3-cyano-4-(2-methoxypyridin-3-yl)pyrrolidine-1-carbonyl)-5-oxodecahydropyrrolo[1,2-a]azocin-6-yl)carbamoyl)benzo[b]thiophen-5-yl)fluoromethyl)phosphonic acid] the IC50 [1, 5] was at most 0.3 µM and the IC50 [2, 6] was 1 to 10 µM.

COc1cccc([C@@H]2CN(C(=O)[C@@H]3CC[C@@H]4CCCC[C@H](NC(=O)c5cc6cc(C(F)P(=O)(O)O)ccc6s5)C(=O)N43)C3(CC3)[C@H]2C#N)c1 (relative stereo) [Compound 231, ((2-(((3S,6S,10aS)-3-((rel-trans)-7-cyano-6-(3-methoxyphenyl)-4-azaspiro[2.4]heptane-4-carbonyl)-5-oxodecahydropyrrolo[1,2-a]azocin-6-yl)carbamoyl)benzo[b]thiophen-5-yl)fluoromethyl)phosphonic acid] gave an IC50 [1, 5] of at most 0.3 µM and an IC50 [2, 6] of 1 to 10 µM.

Work on N#C[C@@H]1CN(C(=O)[C@@H]2CCC[C@@H]3CCC[C@H](NC(=O)c4cc5cc(C(F)P(=O)(O)O)ccc5s4)C(=O)N32)C[C@H]1c1ccccc1 (relative stereo) [Compound 551, ((2-(((4S,7S,10aS)-4-((rel-trans)-3-cyano-4-phenylpyrrolidine-1-carbonyl)-6-oxodecahydropyrido[1,2-a]azepin-7-yl)carbamoyl)benzo[b]thiophen-5-yl)fluoromethyl)phosphonic acid] yielded an IC50 [1, 5] of at most 0.3 µM and an IC50 [2, 6] of 1 to 10 µM.
